Experimental data reported in US12648965B2, “Use of bovine spleen peptide powder in improving sleep, preventing or treating depression, or improving intestinal function” (BEIJING NO. 1 BIO-TECHNOLOGY DEVELOPMENT CO., LTD., priority 2022, dated 2026).

Assays:
[1] = test system: zebrafish model of insomnia established by PTZ; experiment: Evaluation of the efficacy in improving sleep, PTZ zebrafish model of insomnia; type: in vivo; conditions: 125 μg/mL, 24 h, n = 10
From the text: In the present application, a state in which zebrafish is in a speed of movement of greater than 20 mm/s is considered to be an awake state, a state in which the speed of movement is less than 4 mm/s is considered to be a sleep state, and a state in which the speed of movement is 4-20 mm/s corresponds to sleep latency.
As used herein, the term “amount of wake after sleep onset” refers to the distance of movements during which the speed of movement is greater than 20 mm/s.
As used herein, the term “time of wake after sleep onset” refers to the time of movements during which the speed of movement is greater than 20 mm/s.
The 5 dpf wild type zebrafish of line AB were randomly selected and placed in a 6-well plate, and for the experimental groups 30 zebrafish were treated in each well. The positive control melatonin was in a concentration of 125 μg/mL. Meanwhile, the normal control group (fed in a conventional manner) and the model control group (i.e., the zebrafish model of insomnia established by PTZ) were set, with a capacity of 3 mL per well. […] The zebrafish were analyzed for amount of wake after sleep onset and time of wake after sleep onset. The bovine spleen peptide powder was evaluated for its efficacy in sleep improvement through statistical analysis results of the above indicators. The statistical results were expressed as “mean±standard deviation”.

[2] = test system: zebrafish model of gastrointestinal mucosal injury (TNBS); experiment: Evaluation of regulatory efficacy on intestinal goblet cells, TNBS zebrafish model; type: in vivo; conditions: 15.0 μg/mL, 2 days after TNBS, n = 10
Experimental: The 3 dpf wild type zebrafish of line AB were randomly selected and placed in a 6-well plate, and for the experimental groups 30 zebrafish were treated in each well. Except for the normal control group (fed in a conventional manner), all the other experimental groups were given aqueous TNBS to establish a zebrafish model of gastrointestinal mucosal injury. After a 2-day treatment at 28° C., TNBS was removed, and the bovine spleen peptide powder dissolved in water was given at a concentration as shown in Table 9 below. The positive control prednisone was at a concentration of 15.0 μg/mL. Meanwhile, a normal control group and a model control group (i.e., a zebrafish model of gastrointestinal mucosal injury model established by TNBS) were set, with a capacity of 3 mL per well. After a further 2-day treatment at 28° C., 10 zebrafish from each experimental group were randomly selected and placed under the dissecting microscope for photographing. Data were acquired by the NIS-Elements D 3.20 advanced image processing software. The number of goblet cells in the intestine of zebrafish was analyzed. Statistical results were used to evaluate the regulatory efficacy of the goblet cells in the intestine of the zebrafish. The statistical results were expressed as “mean±standard deviation”.

Row | Structure (SMILES) | Amount of wake after sleep onset (mean ± standard deviation) [1] | Time of wake after sleep onset (mean ± standard deviation) [1] | Number of intestinal goblet cells (mean ± standard deviation) [2]
1 | COc1ccc2[nH]cc(CCNC(C)=O)c2c1 [Melatonin, melatonin] | 346 ± 35.3 mm | 8.18 ± 0.795 s | 
2 | C[C@]12C=CC(=O)C=C1CC[C@@H]1[C@@H]2C(=O)C[C@@]2(C)[C@H]1CC[C@]2(O)C(=O)CO [Prednisone, prednisone] |  |  | 47.2 ± 1.89 count
